Where no end group is shown, it is not given here.
Key:
[1] = Lipid-protein overlay (fat blot); format: binding
[2] = Lipid-protein overlay (fat blot); format: binding; remark: listed apart in the source
[3] = Lipid-protein overlay (fat blot); format: binding, bovine
[4] = Lipid-protein overlay (fat blot); format: binding; remark: listed apart in the source
neuroblastoma cells = experiment: Live-cell uptake after glycosphingolipid depletion with Fumonisin B1; format: cell-based, human; details: 10 μM FB1
[5] = Lipid-protein overlay (fat blot); format: binding; details: Sphingostrips, relatively low amounts of lipids (100 nmole equivalents)
Drosophila c6 cells = experiment: Cholesterol depletion measured with Amplex Red Cholesterol Assay kit; format: cell-based; details: for reduction of cholesterol: 10 mM, 30 min, whole cell lysates
Experimental: Cholesterol depletion and overload: Cells were incubated in 4 mM or 10 mM Methyl-β-cyclo-dextrin (MβCD) (Sigma, USA) for 30 min in serum-free medium, and washed. AMPLEX RED™ Cholesterol Assay kit (Invitrogen) was used to measure cholesterol concentrations in cell extracts before OPTIPREP™ gradient formation and later on DRM fractions generated. For cholesterol excess, 10 mM MβCD-cholesterol-complexes were prepared as described previously and incubated with cells at 25° C. for 30 min before labelling. After treatment cells were further incubated in complete medium with FBS.
Drug treatments: For cholesterol depletion cells were incubated in 10 mM Methyl-b-cyclo-dextrin (MbCD) (Sigma, USA) for 30 min in serum-free medium, and washed. AMPLEX RED™ Cholesterol Assay kit (Invitrogen) was used to measure cholesterol concentrations in cell extracts before OPTIPREP™ gradient formation and later on DRM fractions generated.
Treatments that inhibit cholesterol synthesis or that remove cholesterol from membranes are known to disrupt lipid rafts. Methyl-β-cyclo-dextrin (MβCD) was used to deplete Drosophila c6 (FIG. 13) and neuroblastoma cells (data not shown) of cholesterol and related sterols (see Methods), and looked at the effect on SBD binding. First, the effectiveness of the MβCD treatment was tested by measuring total cholesterol levels using the AMPLEX RED™ kit (Invitrogen). On c6 cells, cholesterol was reduced by 42% after 30 min, and the distribution of the remaining cholesterol became more uniform across the density gradient (FIG. 13C).

[6] = tested on: Drosophila c6 neuronal cells; experiment: Labelling of Drosophila c6 neuronal cells with SBD, SBD* and SBD^scr peptides; format: cell-based
[7] = tested on: detergent resistant membrane fractions from human neuroblastomas, SH-SY5Y; experiment: Dot blot binding to isolated DRM density-gradient fractions; details: fractions 1-12, 1 top (detergent insoluble)
[8] = tested on: liposomes of raft-like composition (SM:Ch:POPC) with or without GM1, GD1a, GCB; POPC liposomes; experiment: Liposome binding, fluorescence retained after centrifugal filtration; details: control
SH-SY5Y neuroblastoma = experiment: Live-cell uptake under cholesterol depletion (MβCD); format: cell-based, human; details: only after 2 h of cholesterol depletion
[9] = peptide at higher concentrations (20 μM)
[10] = peptide at higher concentrations (20 μM), listed as mutated peptide
[11] = spotted strips, 1000-2000 nmole equivalents lipid
[12] = spotted strips, 1000-2000 nmole equivalents lipid, listed as scrambled version of the peptide

With DAEFAHDSGAEVHHQELVFFAEDVG [SBD**-myc] as the molecule, how does the “interaction with GD1a” value ([1]; peptide at 5 μM) read?
The value was “fails to show any interaction”.

And the “interaction with GD1a” value [1, 9]?
The value was “only weakly interacts”.

What about the “interaction with GD1a” value [1, 10] of the same molecule?
The value was “bound very weakly”.

And the “interaction with GD1b” value ([2]; peptide at low concentrations)?
Its value is “very weakly”.

And the interaction with galactocerebrosides ([3]; peptide at low concentrations)?
Its interaction with galactocerebrosides is “interacted”.

What about the “interaction with SM” value ([4]; peptide at 5 μM) of the same molecule?
Its value is “fails to show any interaction”.

And the “interaction with SM” value [4, 9]?
Its value is “fails to show any interaction”.

And the “interaction with SM” value [4, 10]?
Its value is “not”.

Which results are given for “Transferrin-Alexa594: marker of clathrin-mediated uptake”?
uptake after Fumonisin B1 (FB1) treatment (neuroblastoma cells): not significantly altered; uptake after Fumonisin B1 (FB1) treatment (neuroblastoma cells; listed as Tfr): essentially unaltered

Which results are given for FYHDESEFGHAVEQFGRDVEAVHDL [SBD-scr-myc]?
interaction with GM1 ([5]; listed as SBD scr-myc): interact; interaction with GM1 ([5]; listed as SBD-scr): showed signal; interaction with GD1a [1, 11]: bind; interaction with GD1a [1, 12]: interacted approximately as well; interaction with GD1b [2, 11]: bind; interaction with GD1b [2, 12]: interacted approximately as well; interaction with galactocerebrosides [3, 11]: bind; interaction with sphingomyelin [4, 11]: interacted approximately as well

Which reduction of cholesterol (Drosophila c6 cells) does the source give for Methyl-β-cyclo-dextrin [MβCD] here?
The reduction of cholesterol was 42%.

And the reduction of cholesterol (Drosophila c6 cells; listed as M[…]CD)?
Its reduction of cholesterol is “over 40%”.

And the “depletion of total cholesterol” value (Drosophila c6 cells; Example 1)?
Its value is 40%.

Which “internalized punctae (number and intensity)” value ([6]; Oregon Green conjugates, 10 μM each) does the source give for “FYHDESEFGHAVEQFGRDVEAVHDL (not fully specified; also: fluorophore, identity and site not given here) [SBD^scr]” here?
Its value is “much reduced”.

What about the “concentration needed for binding to cells” value ([6]; c6 cells (FIG. 1B)) of the same molecule?
The value was at least 50 µM.

What does the source list for CtxB [reference compound]?
interaction with GM1 [5]: recognize; binding to density-gradient fractions (dot blot) [7]: typical two-peak distribution; uptake after Fumonisin B1 (FB1) treatment (neuroblastoma cells): not affected

For CtxB-Alexa594, which “retention on GM1 liposomes compared with GD1a or no glycolipid” value [8] is on record?
The value was “retained more strongly”.

And the “uptake under cholesterol depletion” value (SH-SY5Y neuroblastoma)?
Its value is “reduced rate of uptake”.

B1: Lysenin: sphingomyelin-binding protein toxin from earthworm (protein, UniProt O18423 1-297, looked up)
Lysenin: MSAKAAEGYEQIEVDVVAVWKEGYVYENRGSTSVDQKITITKGMKNVNSETRTVTATHSIGSTISTGDAFEIGSVEVSYSHSHEESQVSMTETEVYESKVIEHTITIPPTSKFTRWQLNADVGGADIEYMYLIDEVTPIGGTQSIPQVITSRAKIIVGRQIILGKTEIRIKHAERKEYMTVVSRKSWPAATLGHSKLFKFVLYEDWGGFRIKTLNTMYSGYEYAYSSDQGGIYFDQGTDNPKQRWAINKSLPLRHGDVVTFMNKYFTRSGLCYDDGPATNVYCLDKREDKWILEVVG
With B1 as the molecule, how does the “interaction with Sphingomyelin (spot 5)” value ([4]; Sphingostrips) read?
The value was “recognize”.

What about the “binding to density-gradient fractions (dot blot)” value [7] of the same molecule?
The value was “bound to non-DRM fractions”.
